Measurements: US20240383915A1, “OXAZEPINE COMPOUNDS AND USES THEREOF IN THE TREATMENT OF CANCER” (Genentech, Inc., priority 2021, published 2024)
Like-named read-outs stand apart in the source and are kept apart here.

How the values were obtained:
KRas(G12V) = KRas(G12V) (Homo sapiens (Human), UniProt P01116, G12V); assay: KRas(G12V) GDP HTRF (BODIPY-GDP exchange TR-FRET); assay type: biochemical
KRas = KRas (Homo sapiens (Human), UniProt P01116); assay: KRas GDP HTRF (BODIPY-GDP exchange TR-FRET); assay type: biochemical
How it was run: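 Inhibition of SOS1-mediated exchange of BODIPY-GDP on KRAS G12D, started with 3 nM recombinant human SOS1 and 300 nM BODIPY-GDP and read after 60 min. TR-FRET excitation 337 nm, ratio 520/490 nm ×10,000. IC50 from 4-parameter Hill fit of normalized data.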

SW480 cells = assay: SW480 proliferation assay; assay type: cell-based; settings: read-out: SW480 Prolif IC50 (G12V)
PC-9 cells = assay: PC9 proliferation assay; assay type: cell-based, human; settings: read-out: PC9 Prolif IC50 (G12V)

KRas, sequence (P01116-2 other isoform, or with tags, fused parts or gaps): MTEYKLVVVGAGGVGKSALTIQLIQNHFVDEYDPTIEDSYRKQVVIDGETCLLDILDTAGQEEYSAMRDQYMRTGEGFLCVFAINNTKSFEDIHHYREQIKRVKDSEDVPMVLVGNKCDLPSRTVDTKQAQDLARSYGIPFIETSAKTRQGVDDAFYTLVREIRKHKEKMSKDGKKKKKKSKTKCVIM
KRas(G12V), sequence (P01116-2 other isoform, or with tags, fused parts or gaps G12V): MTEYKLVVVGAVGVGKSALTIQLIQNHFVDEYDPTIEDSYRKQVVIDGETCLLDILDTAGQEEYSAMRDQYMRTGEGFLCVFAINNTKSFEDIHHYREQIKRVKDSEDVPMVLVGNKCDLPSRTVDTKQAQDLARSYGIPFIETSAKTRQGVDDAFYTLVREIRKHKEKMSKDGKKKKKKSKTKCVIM

IC50 (KRas(G12V))	IC50 (KRas)	IC50 (SW480 cells; Homo sapiens, SW480, SW480)	IC50 (PC-9 cells; Homo sapiens, PC-9, PC9)	IC50 (SW480 cells; SW480)	IC50 (PC-9 cells; PC9)	Compound
0.094 nM	0.115 nM	19 nM	2200 nM			Cc1cc(N)nc(-c2c(Cl)c3c4c(nc(OC[C@@H]5CC[C@H]6COCCN65)nc4c2F)N([C@H](C)c2cncnc2N)CCO3)c1C(F)(F)F (atropisomer, axis not shown; (aS)) [Example 102a, 5-((R)-1-((R)-9-(6-amino-4-methyl-3-(trifluoromethyl)pyridin-2-yl)-8-chloro-10-fluoro-2-(((6S,8aS)-hexahydro-1H-pyrrolo[2,1-c][1,4]oxazin-6-yl)methoxy)-5,6-dihydro-4H-[1,4]oxazepino[5,6,7-de]quinazolin-4-yl)ethyl)pyrimidin-4-amine]
90 nM	240 nM			560 nM	4000 nM	Cc1cc(N)nc(-c2c(Cl)c3c4c(nc(OC[C@@]56CCCN5C[C@H](F)C6)nc4c2F)N([C@H](C)c2cccnc2N)CCO3)c1C(F)(F)F (atropisomer, axis not shown; (aS)) [Example 107, (S)-6-(4-((R)-1-(2-aminopyridin-3-yl)ethyl)-8-chloro-10-fluoro-2-(((2R,7aS)-2-fluorotetrahydro-1H-pyrrolizin-7a(5H)-yl)methoxy)-5,6-dihydro-4H-[1,4]oxazepino[5,6,7-de]quinazolin-9-yl)-4-methyl-5-(trifluoromethyl)pyridin-2-amine]
0.06 nM	0.2 nM	2 nM	1400 nM			C[C@H](c1cccnc1N)N1CCOc2c(Cl)c(-c3nc(N)ccc3C(F)(F)F)c(F)c3nc(OC[C@@]45CCCN4C[C@H](F)C5)nc1c23 (atropisomer, axis not shown; (aS)) [Example 108a, 6-((R)-4-((R)-1-(2-aminopyridin-3-yl)ethyl)-8-chloro-10-fluoro-2-(((2R,7aS)-2-fluorotetrahydro-1H-pyrrolizin-7a(5H)-yl)methoxy)-5,6-dihydro-4H-[1,4]oxazepino[5,6,7-de]quinazolin-9-yl)-5-(trifluoromethyl)pyridin-2-amine]
0.09 nM	0.2 nM	2.8 nM	7500 nM			C[C@H](c1cccnc1N)N1CCOc2c(Cl)c(-c3nc(N)cc4ccccc34)c(F)c3nc(OC[C@@]45CCCN4C[C@H](F)C5)nc1c23 (atropisomer, axis not shown; (aS)) [Example 113a, 1-((R)-4-((R)-1-(2-aminopyridin-3-yl)ethyl)-8-chloro-10-fluoro-2-(((2R,7aS)-2-fluorotetrahydro-1H-pyrrolizin-7a(5H)-yl)methoxy)-5,6-dihydro-4H-[1,4]oxazepino[5,6,7-de]quinazolin-9-yl)isoquinolin-3-amine]
0.07 nM	0.2 nM	28 nM	2500 nM			Cc1cc(N)nc(-c2c(Cl)c3c4c(nc(OC[C@@H]5CC[C@H]6COCCCN65)nc4c2F)N([C@H](C)c2cccnc2N)CCO3)c1C(F)(F)F (atropisomer, axis not shown; (aS)) [Example 120a, 6-((R)-4-((R)-1-(2-aminopyridin-3-yl)ethyl)-8-chloro-10-fluoro-2-(((7S,9aS)-hexahydro-1H,3H-pyrrolo[2,1-c][1,4]oxazepin-7-yl)methoxy)-5,6-dihydro-4H-[1,4]oxazepino[5,6,7-de]quinazolin-9-yl)-4-methyl-5-(trifluoromethyl)pyridin-2-amine]
0.13 nM	0.15 nM	30 nM	6500 nM			CC(=O)N1CCN2[C@H](COc3nc4c5c(c(Cl)c(-c6nc(N)cc(C)c6C(F)(F)F)c(F)c5n3)OCCN4[C@H](C)c3cccnc3N)CC[C@H]2C1 (atropisomer, axis not shown; (aS)) [Example 123a, 1-((6S,8aS)-6-((((R)-9-(6-amino-4-methyl-3-(trifluoromethyl)pyridin-2-yl)-4-((R)-1-(2-aminopyridin-3-yl)ethyl)-8-chloro-10-fluoro-5,6-dihydro-4H-[1,4]oxazepino[5,6,7-de]quinazolin-2-yl)oxy)methyl)hexahydropyrrolo[1,2-a]pyrazin-2(1H)-yl)ethan-1-one]
0.12 nM	0.218 nM	23 nM	3700 nM			Cc1cc(N)nc(-c2c(Cl)c3c4c(nc(OC[C@@H]5CC[C@H]6CN(S(C)(=O)=O)CCN56)nc4c2F)N([C@H](C)c2cccnc2N)CCO3)c1C(F)(F)F (atropisomer, axis not shown; (aS)) [Example 125a, 6-((R)-4-((R)-1-(2-aminopyridin-3-yl)ethyl)-8-chloro-10-fluoro-2-(((6S,8aS)-2-(methylsulfonyl)octahydropyrrolo[1,2-a]pyrazin-6-yl)methoxy)-5,6-dihydro-4H-[1,4]oxazepino[5,6,7-de]quinazolin-9-yl)-4-methyl-5-(trifluoromethyl)pyridin-2-amine]
1.8 nM	11 nM	1000 nM	3800 nM			Cc1cc(N)nc(-c2c(Cl)c3c4c(nc(OC[C@@]56CCCN5C[C@H](F)C6)nc4c2F)N(C)CCO3)c1C(F)(F)F (single isomer, unassigned) [Example 41a]
0.3 nM	0.25 nM			85 nM	1300 nM	Cc1cc(N)nc(-c2c(Cl)c3c4c(nc(OC[C@@]56CCCN5C[C@H](F)C6)nc4c2F)N(Cc2cccnc2N)CCO3)c1C(F)(F)F (single isomer, unassigned) [Example 42a]
55 nM	82 nM			3400 nM	7000 nM	Cc1cc(N)nc(-c2c(Cl)c3c4c(nc(OC[C@@]56CCCN5C[C@H](F)C6)nc4c2F)N(Cc2cccnc2N)CCO3)c1C(F)(F)F (single isomer, unassigned) [Example 42b]
0.11 nM	0.27 nM	2.6 nM	2300 nM			Cc1cc(N)c(F)c(-c2c(Cl)c3c4c(nc(OC[C@@]56CCCN5C[C@H](F)C6)nc4c2F)N([C@H](C)c2cccnc2N)CCO3)c1C(F)(F)F (single isomer, unassigned) [Example 73a]
0.09 nM	0.21 nM	6 nM	2900 nM			Cc1cc(N)c(F)c(-c2c(Cl)c3c4c(nc(OC[C@@]56CCCN5C[C@H](F)C6)nc4c2F)N([C@H](C)c2cccnc2N)CCO3)c1I (single isomer, unassigned) [Example 74a]
0.08 nM	0.23 nM	16 nM	7100 nM			C[C@H](c1cccnc1N)N1CCOc2c(Cl)c(-c3c(F)ccc4cnn(C)c34)c(F)c3nc(OC[C@@]45CCCN4C[C@H](F)C5)nc1c23 (single isomer, unassigned) [Example 105a]
9 nM	46 nM	12000 nM	18000 nM			Cc1cc(N)nc(-c2cc3nc(OC[C@@]45CCCN4C[C@H](F)C5)nc4c3c(c2Cl)OCCN4Cc2ccn[nH]2)c1C(F)(F)F [Example 1, 6-(4-((1H-pyrazol-5-yl)methyl)-8-chloro-2-(((2R,7aS)-2-fluorotetrahydro-1H-pyrrolizin-7a(5H)-yl)methoxy)-5,6-dihydro-4H-[1,4]oxazepino[5,6,7-de]quinazolin-9-yl)-4-methyl-5-(trifluoromethyl)pyridin-2-amine]
11 nM	25 nM	11000 nM	7700 nM			Cc1cc(N)nc(-c2cc3nc(OC[C@@]45CCCN4C[C@H](F)C5)nc4c3c(c2Cl)OCCN4Cc2cn[nH]c2)c1C(F)(F)F [Example 2, 6-(4-((1H-pyrazol-4-yl)methyl)-8-chloro-2-(((2R,7aS)-2-fluorotetrahydro-1H-pyrrolizin-7a(5H)-yl)methoxy)-5,6-dihydro-4H-[1,4]oxazepino[5,6,7-de]quinazolin-9-yl)-4-methyl-5-(trifluoromethyl)pyridin-2-amine]
1.5 nM	9.2 nM	1500 nM	9000 nM			Cc1cc(N)nc(-c2cc3ncnc4c3c(c2Cl)OCCN4[C@H](C)c2cccnc2N)c1C(F)(F)F [Example 5, (R)-6-(4-(1-(2-aminopyridin-3-yl)ethyl)-8-chloro-5,6-dihydro-4H-[1,4]oxazepino[5,6,7-de]quinazolin-9-yl)-4-methyl-5-(trifluoromethyl)pyridin-2-amine]
6.1 nM	52 nM	8700 nM	17000 nM			Cc1cc(N)nc(-c2cc3ncnc4c3c(c2Cl)OCCN4[C@H](C)c2cncc(N)c2)c1C(F)(F)F [Example 17, (R)-6-(4-(1-(5-aminopyridin-3-yl)ethyl)-8-chloro-5,6-dihydro-4H-[1,4]oxazepino[5,6,7-de]quinazolin-9-yl)-4-methyl-5-(trifluoromethyl)pyridin-2-amine]
35 nM	200 nM	20000 nM	20000 nM			Cc1cc(N)nc(-c2cc3ncnc4c3c(c2Cl)OCCN4[C@@H](C)c2cccnc2N)c1C(F)(F)F [Example 18, (S)-6-(4-(1-(2-aminopyridin-3-yl)ethyl)-8-chloro-5,6-dihydro-4H-[1,4]oxazepino[5,6,7-de]quinazolin-9-yl)-4-methyl-5-(trifluoromethyl)pyridin-2-amine]
15000 nM	200000 nM	5700 nM	4500 nM			Cc1cc(N)nc(-c2cc3ncnc4c3c(c2Cl)OC[C@H](CC#N)N4Cc2cccnc2N)c1C(F)(F)F [Example 19, (S)-2-(9-(6-amino-4-methyl-3-(trifluoromethyl)pyridin-2-yl)-4-((2-aminopyridin-3-yl)methyl)-8-chloro-5,6-dihydro-4H-[1,4]oxazepino[5,6,7-de]quinazolin-5-yl)acetonitrile]
